In general, inhibition refers to the drop in the measured response relative to a control, in per cent. The IC50 is the concentration at which inhibition is half-maximal. A low value points to inhibition by little substance. What is called Ki is a dissociation constant, usually derived from enzyme kinetics or from competition with a known ligand. A high value points to weaker binding.

What all share (type): cell-based
The target in assay [1] is T1, VR1 (rat) (Rattus norvegicus, UniProt O35433).
T1 construct: from tissue; host or cells: primary cells dissociated from rat dorsal root ganglia
Nature of the assay: Functional FLIPR Ca2+ inflow assay on rat-species vanilloid receptor 1 in rat dorsal root ganglia cells. To be noted: test compound 10 μM; for VR1 (rat) (% inhibition compared to 10 μM CP) / inhibition at 10 µM: then 100 nM capsaicin after 5 min, relative to maximum inhibition with 10 μM capsaicin; for VR1 (rat) (% stimulation compared to 10 μM CP) / activation at 10 µM: Ca2+ signal relative to 10 μM capsaicin (CP); for inhibition at 10 µM: read-out: VR1 (rat) (% inhibition compared to 10 μM CP); for activation at 10 µM: read-out: VR1 (rat) (% stimulation compared to 10 μM CP). The source says: I. Functional Testing Carried Out on the Vanilloid Receptor 1 (VR1/TRPV1 Receptor)
The agonistic or antagonistic effect of the substances to be tested can be determined on the rat-species vanilloid receptor 1 (VR1/TRPV1) using the following assay. According to this assay, the Ca^2+ inflow is quantified through the receptor channel using a Ca^2+-sensitive dye (type Fluo-4, Molecular Probes Europe BV, Leiden, Netherlands) in a fluorescent imaging plate reader (FLIPR, Molecular Devices, Sunnyvale, USA).
Complete medium: 50 mL HAMS F12 nutrient mixture (Gibco Invitrogen GmbH, Karlsruhe, Germany) with
10% by volume of FCS (foetal calf serum, Gibco Invitrogen GmbH, Karlsruhe, Germany, […]);
2 mM L-glutamine (Sigma, Munich, Germany);
1% by weight of AA solution (antibiotic/antimyotic solution, PAA, Pasching, Austria) and 25 ng/ml NGF medium (2.5 S, Gibco Invitrogen GmbH, Karlsruhe, Germany)
Cell culture plate: Poly-D-lysine-coated, black 96 well plates having a clear base (96 well black/clear plate, BD Biosciences, Heidelberg, Germany) were additionally coated with laminin (Gibco Invitrogen GmbH, Karlsruhe, Germany), the laminin being diluted with PBS (Ca—Mg-free PBS, Gibco Invitrogen GmbH, Karlsruhe, Germany) to a concentration of 100 μg/mL. Aliquots having a laminin concentration of 100 μg/mL were removed and stored at −20° C. The aliquots were diluted with PBS in a ratio of 1:10 to 10 μg/mL laminin and in each case 50 μL of the solution were pipetted into a recess in the cell culture plate. The cell culture plates were incubated for at least two hours at 37° C., the excess solution was removed by suction-filtration and the recesses were each washed twice with PBS. The coated cell culture plates were stored with excess PBS which was not removed until just before the feeding of the cells.
The vertebral column was removed from decapitated rats and placed immediately into cold HBSS buffer (Hank's buffered saline solution, Gibco Invitrogen GmbH, Karlsruhe, Germany), i.e. buffer located in an ice bath, mixed with 1% by volume (percent by volume) of an AA solution (antibiotic/antimyotic solution, PAA, Pasching, Austria). The vertebral column was cut longitudinally and removed together with fasciae from the vertebral canal. Subsequently, the dorsal root ganglia (DRG) were removed and again stored in cold HBSS buffer mixed with 1% by volume of an AA solution. The DRG, from which all blood remnants and spinal nerves had been removed, were transferred in each case to 500 μL of cold type 2 collagenase (PAA, Pasching, Austria) and incubated for 35 minutes at 37° C. After the addition of 2.5% by volume of trypsin (PAA, Pasching, Austria), incubation was continued for 10 minutes at 37° C. After complete incubation, the enzyme solution was carefully pipetted off and 500 μL of complete medium were added to each of the remaining DRG. The DRG were in each case suspended several times, drawn through cannulae No. 1, No. 12 and No. 16 using a syringe and transferred to a 50 mL Falcon tube which was filled up to 15 mL with complete medium. The contents of each Falcon tube was in each case filtered through a 70 μm Falcon filter element and centrifuged for 10 minutes at 1,200 rpm and room temperature. The resulting pellet was in each case taken up in 250 μL of complete medium and the number of cells determined.
The number of cells in the suspension was set to 3×10^5 per mL and 150 μL of this suspension were in each case introduced into a recess in the cell culture plates coated as described hereinbefore. In the incubator the plates were left for two to three days at 37° C., 5% by volume of CO2 and 95% relative humidity. […]

Assay [2] has as its target T2, VR1 (human) (Homo sapiens, UniProt Q8NER1).
T2 construct: expressed in transfected cells; host or cells: CHO K1 cells (ECACC)
Nature of the assay: Functional FLIPR Ca2+ inflow assay on VR1 (human), CHO K1 cells stably transfected with the VR1 gene. Conditions: test compound 10 μM; for VR1 (human) (% inhibition compared to 10 μM CP) / inhibition at 10 µM: then 100 nM capsaicin after 5 min, relative to maximum inhibition with 10 μM capsaicin; for VR1 (human) (% stimulation compared to 10 μM CP) / activation at 10 µM: Ca2+ signal relative to 10 μM capsaicin (CP); for inhibition at 10 µM / activation at 10 µM: CHO-K1; for inhibition at 10 µM: read-out: VR1 (human) (% inhibition compared to 10 μM CP); for activation at 10 µM: read-out: VR1 (human) (% stimulation compared to 10 μM CP). The source says:
II. Functional Testing Carried Out on the Vanilloid Receptor (VR1)
The agonistic or antagonistic effect of the substances to be tested can also be determined on the vanilloid receptor (VR1) using the following assay. According to this assay, the Ca^2+ inflow is quantified through the channel using a Ca^2+-sensitive dye (type Fluo-4, Molecular Probes Europe BV, Leiden, Netherlands) in a fluorescent imaging plate reader (FLIPR, Molecular Devices, Sunnyvale, USA).
Chinese hamster ovary cells (CHO K1 cells, European Collection of Cell Cultures (ECACC) United Kingdom) were stably transfected with the VR1 gene. For functional testing, these cells were plated out on poly-D-lysine-coated black 96 well plates having a clear base (BD Biosciences, Heidelberg, Germany) at a density of 25,000 cells/well. The cells were incubated overnight at 37° C. and 5% CO2 in a culture medium (Ham's F12 nutrient mixture, 10% by volume of FCS (foetal calf serum), 18 μg/ml L-proline). The next day the cells were incubated with Fluo-4 (Fluo-4 2 μM, 0.01% by volume of Pluronic F127, Molecular Probes in HBSS (Hank's buffered saline solution), Gibco Invitrogen GmbH, Karlsruhe, Germany) for 30 minutes at 37° C. Subsequently, the plates were washed three times with HBSS buffer and after further incubation for 15 minutes at room temperature used for Ca^2+ measurement in a FLIPR assay. The Ca^2+-dependent fluorescence was measured before and after the addition of the substances to be tested (λex wavelength=488 nm, λem=540 nm). Quantification was carried out by measuring the highest fluorescence intensity (FC, Fluorescence Counts) over time.
The FLIPR protocol consists of 2 substance additions. First the compounds to be tested (10 μM) were pipetted onto the cells and the Ca^2+ inflow was compared with the control (capsaicin 10 μM) (% activation based on the Ca^2+ signal after the addition of 10 μM capsaicin). After 5 minutes' incubation, 100 nM of capsaicin were administered and the Ca^2+ inflow was also determined.
Desensitising agonists and antagonists led to suppression of the Ca^2+ inflow. The % inhibition was calculated compared to the maximum achievable inhibition with 10 μM of capsaicin.

Assay [3] addresses T1, VR1 (rat). The experiment in a line: Functional FLIPR Ca2+ inflow assay on rat-species vanilloid receptor 1 in rat dorsal root ganglia cells. To be noted: against capsaicin (CAP).

T2 sequence (Q8NER1 whole entry): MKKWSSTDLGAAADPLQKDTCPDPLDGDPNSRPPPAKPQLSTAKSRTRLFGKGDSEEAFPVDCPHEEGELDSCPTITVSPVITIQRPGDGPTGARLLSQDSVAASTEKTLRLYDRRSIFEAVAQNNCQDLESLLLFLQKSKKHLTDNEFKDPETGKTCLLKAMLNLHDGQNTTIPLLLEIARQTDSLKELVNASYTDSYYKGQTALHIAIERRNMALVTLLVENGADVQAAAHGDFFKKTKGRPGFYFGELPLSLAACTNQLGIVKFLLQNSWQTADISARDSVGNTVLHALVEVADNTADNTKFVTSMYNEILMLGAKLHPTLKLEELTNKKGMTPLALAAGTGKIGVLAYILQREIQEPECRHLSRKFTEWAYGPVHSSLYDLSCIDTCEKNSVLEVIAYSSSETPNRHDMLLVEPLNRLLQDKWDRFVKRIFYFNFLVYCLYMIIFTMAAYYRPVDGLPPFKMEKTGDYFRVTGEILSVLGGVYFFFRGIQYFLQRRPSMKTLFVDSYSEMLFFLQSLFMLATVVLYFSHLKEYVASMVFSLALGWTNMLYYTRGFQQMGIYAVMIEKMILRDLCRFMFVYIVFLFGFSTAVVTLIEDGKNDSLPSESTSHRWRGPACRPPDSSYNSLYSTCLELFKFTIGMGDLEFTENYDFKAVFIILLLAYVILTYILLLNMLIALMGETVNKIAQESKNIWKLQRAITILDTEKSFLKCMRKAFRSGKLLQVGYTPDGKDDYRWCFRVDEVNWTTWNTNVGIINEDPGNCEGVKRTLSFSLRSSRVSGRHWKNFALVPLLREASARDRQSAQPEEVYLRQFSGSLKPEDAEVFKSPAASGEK
T1 sequence (O35433 whole entry): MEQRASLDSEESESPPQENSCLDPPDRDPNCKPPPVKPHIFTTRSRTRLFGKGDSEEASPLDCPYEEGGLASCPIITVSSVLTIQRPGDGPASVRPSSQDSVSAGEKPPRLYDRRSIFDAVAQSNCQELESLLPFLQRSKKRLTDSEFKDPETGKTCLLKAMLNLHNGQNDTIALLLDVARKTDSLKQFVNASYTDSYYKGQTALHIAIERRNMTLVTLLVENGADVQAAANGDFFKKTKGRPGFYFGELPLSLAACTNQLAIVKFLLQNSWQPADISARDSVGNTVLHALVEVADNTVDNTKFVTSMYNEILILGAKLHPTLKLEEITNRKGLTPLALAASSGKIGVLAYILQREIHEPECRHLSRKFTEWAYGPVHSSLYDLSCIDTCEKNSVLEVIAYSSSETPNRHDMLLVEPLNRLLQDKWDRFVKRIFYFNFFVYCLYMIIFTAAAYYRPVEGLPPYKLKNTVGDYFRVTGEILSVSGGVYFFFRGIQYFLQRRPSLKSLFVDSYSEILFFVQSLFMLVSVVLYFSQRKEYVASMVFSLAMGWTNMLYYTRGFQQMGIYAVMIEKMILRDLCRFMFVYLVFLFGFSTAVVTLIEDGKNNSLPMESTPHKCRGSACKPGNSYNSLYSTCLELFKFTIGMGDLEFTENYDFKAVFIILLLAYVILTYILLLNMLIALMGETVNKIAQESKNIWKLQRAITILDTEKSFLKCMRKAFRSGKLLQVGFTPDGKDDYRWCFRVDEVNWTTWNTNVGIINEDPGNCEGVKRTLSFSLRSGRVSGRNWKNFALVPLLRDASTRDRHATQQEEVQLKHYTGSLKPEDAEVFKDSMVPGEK

Regarding `CC(C)(C)C1CCC2(CC1)CC(C(=O)N1CCCN(c3ncccc3Cl)CC1)=NO2` (stereo not drawn) [Example 21, trans-(8-tert-butyl-1-oxa-2-azaspiro[4.5]dec-2-en-3-yl)-[4-(3-chloropyridin-2-yl)-[1,4]diazepan-1-yl]methanone], in assay [1], the “VR1 (rat) (% inhibition compared to 10 μM CP)” value came out at 52.32% and the “VR1 (rat) (% stimulation compared to 10 μM CP)” value is listed as 0.37%. In addition, in assay [2], the “VR1 (human) (% inhibition compared to 10 μM CP)” value is recorded as 6.75% and the “VR1 (human) (% stimulation compared to 10 μM CP)” value is reported as −0.05%.

With `CC(C)(C)[C@H]1CC[C@@]2(CC1)CC(C(=O)N1CCCN(c3ncccc3Cl)CC1)=NO2` [Example 22, cis-(8-tert-butyl-1-oxa-2-azaspiro[4.5]dec-2-en-3-yl)-[4-(3-chloropyridin-2-yl)-[1,4]diazepan-1-yl]methanone], in assay [1], the “VR1 (rat) (% inhibition compared to 10 μM CP)” value is given as 16.63% and the “VR1 (rat) (% stimulation compared to 10 μM CP)” value is recorded as −0.37%. In assay [2], the “VR1 (human) (% inhibition compared to 10 μM CP)” value is on record as 0.14% and the “VR1 (human) (% stimulation compared to 10 μM CP)” value is given as 0.13%.

As to `CC(C)(C)C1CCC2(CC1)CC(C(=O)NCc1ccncc1)=NO2` (stereo not drawn) [Example 23, trans-8-tert-butyl-1-oxa-2-azaspiro[4.5]dec-2-ene-3-carboxylic acid (pyridin-4-ylmethyl)amide], in assay [1], the “VR1 (rat) (% inhibition compared to 10 μM CP)” value is 69.46% and the “VR1 (rat) (% stimulation compared to 10 μM CP)” value turned out to be 55.21%. In assay [2], the “VR1 (human) (% inhibition compared to 10 μM CP)” value stood at 54.21% and the “VR1 (human) (% stimulation compared to 10 μM CP)” value is recorded as 23.79%.

Take `CC(C)(C)[C@H]1CC[C@@]2(CC1)CC(C(=O)NCc1ccncc1)=NO2` [Example 24, cis-8-tert-butyl-1-oxa-2-azaspiro[4.5]dec-2-ene-3-carboxylic acid (pyridin-4-ylmethyl)amide]: in assay [1], the “VR1 (rat) (% inhibition compared to 10 μM CP)” value was 97.79% and the “VR1 (rat) (% stimulation compared to 10 μM CP)” value was 87.96%. Also, in assay [2], the “VR1 (human) (% inhibition compared to 10 μM CP)” value is given as 83.01% and the “VR1 (human) (% stimulation compared to 10 μM CP)” value is on record as 91.72%.

As to `CC(C)(C)[C@H]1CC[C@]2(CC1)CC(C(=O)NCc1ccc(NS(C)(=O)=O)c(F)c1)=NO2` [Example 25, trans-8-tert-butyl-1-oxa-2-azaspiro[4.5]dec-2-ene-3-carboxylic acid-3-fluoro-4-methanesulphonylaminobenzylamide], in assay [1], the inhibition at 10 µM was found to be 98.3% and the activation at 10 µM stood at 1.04%. Also, in assay [2], the inhibition at 10 µM turned out to be 56.5% and the activation at 10 µM came to 0.16%.

Regarding `CC(C)(C)c1ccc(NC(=O)C2CCC3(CC2)CC(c2ccccc2)=NO3)cc1` (stereo not shown) [Example 50, 3-phenyl-1-oxa-2-azaspiro[4.5]dec-2-ene-8-carboxylic acid-(4-tert-butylphenyl)amide], in assay [1], the inhibition at 10 µM stood at 97% and the activation at 10 µM amounted to 60%. For the same molecule, in assay [2], the inhibition at 10 µM came out at 64% and the activation at 10 µM amounted to 15%. In assay [3], this molecule had a half-maximal inhibitory concentration (IC50) of 545 nM and an inhibition constant (Ki) of 63.7 nM.

In the case of `CC(C)(C)c1ccc(NC(=O)[C@H]2CC[C@@]3(CC2)CC(c2ccccc2)=NO3)cc1` [Example 51, 3-phenyl-1-oxa-2-azaspiro[4.5]dec-2-ene-8-carboxylic acid-cis-(4-tert-butylphenyl)amide], in assay [1], the “VR1 (rat) (% inhibition compared to 10 μM CP)” value turned out to be 91% and the “VR1 (rat) (% stimulation compared to 10 μM CP)” value stood at 73%. Moreover, in assay [2], the “VR1 (human) (% inhibition compared to 10 μM CP)” value is reported as 25% and the “VR1 (human) (% stimulation compared to 10 μM CP)” value is given as 17%.

Take `COc1cccc(C2=NOC3(CCC(C(=O)Nc4ccc(C(C)(C)C)cc4)CC3)C2)c1` (stereo not shown) [Example 66, N-(4-tert-butylphenyl)-3-(3-methoxyphenyl)-1-oxa-2-azaspiro[4.5]dec-2-ene-8-carboxamide]: in assay [1], the inhibition at 10 µM is 101% and the activation at 10 µM was 87%. Also, in assay [2], the inhibition at 10 µM was 54% and the activation at 10 µM stood at 53%.

With `CC(C)(C)c1ccc(NC(=O)C2CCC3(CC2)CC(C(=O)N2CCN(c4ncccc4Cl)CC2)=NO3)cc1` (stereo not shown) [Example 84, N-(4-tert-butylphenyl)-3-(4-(3-chloropyridin-2-yl)piperazin-1-carbonyl)-1-oxa-2-azaspiro[4.5]dec-2-ene-8-carboxamide], the inhibition at 10 µM in assay [1] came out at 103%; in assay [2], 31%. Besides, the activation at 10 µM in assay [1] was determined as 61%; in assay [2], 33%.

For the molecule `CC(C)(C)C1CCC2(CC1)CC(C(=O)Nc1ccc(NS(C)(=O)=O)c(F)c1)=NO2` (stereo not shown) [Example 90, 8-tert-butyl-N-(3-fluoro-4-(methylsulphonamido)phenyl)-1-oxa-2-azaspiro[4.5]dec-2-ene-3-carboxamide], in assay [1], the inhibition at 10 µM was 100% and the activation at 10 µM is 43%. In addition, in assay [2], the inhibition at 10 µM was 34% and the activation at 10 µM stood at 36%.

As to “((5R,8R)-8-tert-butyl-1-oxa-2-azaspiro[4.5]dec-2-en-3-yl)(4-(3-chloropyridin-2-yl)-2,6-dimethylpiperazin-1-yl)methanone [Example 58]”, in assay [1], the “VR1 (rat) (% inhibition compared to 10 μM CP)” value was found to be 107% and the “VR1 (rat) (% stimulation compared to 10 μM CP)” value was 46%. Moreover, in assay [2], the “VR1 (human) (% inhibition compared to 10 μM CP)” value is listed as 67% and the “VR1 (human) (% stimulation compared to 10 μM CP)” value is reported as 27%.

(Values after patent publication US7981883B2, “Substituted spiro-compounds and the use thereof for producing medicaments” (Gruenenthal GmbH, priority 2005, dated 2011).)
